Source: patent US11578055B2, “Triazacyclododecansulfonamide (“TCD”)-based protein secretion inhibitors” (KEZAR LIFE SCIENCES, priority 2018, dated 2023)

Experiments:
[1] = test system: PD1 signal sequence plus 10 amino acids fused to Gaussia Luciferase (PD1-ss+10aa/Gaussia Luciferase); experiment: Dox Induced PD1-ss-Gluc Assay; type: cell-based; conditions: 24 hr, Dox inducible, 293FRT/TO cells; read-out: 24 hr Dox Inducible PD1ssGluc 293FRT/TO: Mean IC50
How it was run: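 Stable Flp-In 293 T-REx line expressing the fusion under tetracycline-inducible control, plated the day before assay. Compound dilutions added with doxycycline and incubated at 37 °C, 5% CO2; unspecified stereocentres mean data refer to stereoisomer mixtures.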

[2] = test system: full length TNFα (amino acids 1-233) fused to Gaussia Luciferase; experiment: Dox Induced TNFα-FL-Gluc Assay; type: cell-based; conditions: 24 hr, Dox inducible, 293FRT/TO cells; read-out: 24 hr Dox Inducible TNFaFLGluc 293FRT/TO: Mean IC50
How it was run: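 Stable Flp-In 293 T-REx line expressing doxycycline-inducible full-length TNFα fused to Gaussia luciferase; cells plated the day before, then treated with compound dilutions in doxycycline-containing medium at 37° C, 5% CO2. Unspecified stereocentres mean stereoisomer mixtures were tested.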

[3] = test system: full length IL-2 (amino acids 1-153) fused to Gaussia Luciferase; experiment: Dox Induced IL2-FL-Gluc Assay; type: cell-based; conditions: 24 hr, Dox inducible, 293FRT/TO cells; read-out: 24 hr Dox Inducible IL2FLGluc 293FRT/TO: Mean IC50
Excerpt: FIp-In 293 T-REx™ cells were transfected with pcDNA™5/FRT/TO plasmid inserted with cDNA encoding Gaussia Luciferase fused to the 3′ end of cDNA encoding full length IL-2 (amino acids 1-153). Transfected cells were selected for resistance to the selectable markers Hygromycin and Blasticidin to create a stable cell line that contained the IL-2-FL/Gaussia Luciferase cDNA insert whose expression was regulated under the T-REx™ system. The day before assay, cells were trypsinized and plated in 384-well tissue culture plates. The next day, compound dilutions in DMSO/media containing doxycycline were added to the wells and incubated at 37° C., 5% CO2.
For chemical structures that include one or more stereoisomers, but are illustrated without indicating stereochemistry, the assay data refers to a mixture of stereoisomers.

[4] = test system: multiple myeloma cell line NCl-H929; experiment: H929 Cell Viability Assay; type: cell-based, human; conditions: Homo sapiens, NCI-H929, 48 h, H929, Celltiter-Glo
How it was run: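 NCI-H929 myeloma cells in RPMI 1640 with 10% FBS were treated with compound dilutions for 48 h at 37 °C, and viability was then read by CellTiter-Glo luminescence. Compounds drawn without stereochemistry were tested as stereoisomer mixtures.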

[5] = test system: multiple myeloma cell line U266B1; experiment: U266 Cell Viability Assay; type: cell-based, human; conditions: Homo sapiens, U-266; 48 hr, U266, Celltiter-Glo
How it was run: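 U266B1 myeloma cells in RPMI 1640 with 10% FBS were treated with compound dilutions for 48 h at 37° C, 5% CO2. Viability was read as CellTiter-Glo luminescence. Data for structures drawn without stereochemistry refer to stereoisomer mixtures.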

[6] = In Vitro Microsome Stability Assay (human); type: in vitro ADME; conditions: human liver microsomes, 30 min w/ NADPH
How it was run: (§1)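 Species liver microsomes in potassium phosphate buffer were preincubated at 37 °C for 3–5 min with test compound (added from 0.25 mM DMSO stock), then started with NADPH. Samples at 0 and 30 min were quenched with acetonitrile containing internal standard and analysed by LC-MS/MS; % remaining at 30 min used analyte/IS AUC ratios relative to t=0.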

[7] = In Vitro Microsome Stability Assay (mouse); type: in vitro ADME; conditions: mouse liver microsomes, 30 min w/ NADPH
How it was run: as §1

[8] = In Vitro Microsome Stability Assay (rat); type: in vitro ADME; conditions: rat liver microsomes, 30 min w/ NADPH
How it was run: as §1

[9] = In Vitro Microsome Stability Assay (monkey); type: in vitro ADME; conditions: monkey liver microsomes, 30 min w/ NADPH
How it was run: as §1

Compound	IC50 [1] [nM]	IC50 [2] [nM]	IC50 [3] [nM]	EC50 [4] [nM]	EC50 [5] [nM]	Liver Microsome Stability-% Left after 30 min w/ NADPH (%) Human [6] [%]	Liver Microsome Stability-% Left after 30 min w/ NADPH (%) Mouse [7] [%]	Liver Microsome Stability-% Left after 30 min w/ NADPH (%) Rat [8] [%]	Liver Microsome Stability-% Left after 30 min w/ NADPH (%) Monkey [9] [%]
CCC(C)CN1CCCN(S(=O)(=O)c2ccc(N(C)C)cc2)C[C@H](C)CN(S(=O)(=O)N2CCc3cc(Cl)ccc3C2)CCC1 (stereo partly drawn) [A106, 4-{[(3S)-5-[(6-chloro-1,2,3,4-tetrahydroisoquinolin-2-yl)sulfonyl]-3-methyl-9-(2-methylbutyl)-1,5,9-triazacyclododecan-1-yl]sulfonyl}-N,N-dimethylaniline]	52.4	1120	126	903	> 25000	7.18	8.81	18.9	30.7
C[C@H]1CN(S(=O)(=O)c2ccc(N(C)C)cc2)CCCN(CC2CCC2)CCCN(S(=O)(=O)N2CCc3cc(Cl)ccc3C2)C1 [A108, 4-{[(3S)-5-[(6-chloro-1,2,3,4-tetrahydroisoquinolin-2-yl)sulfonyl]-9-(cyclobutylmethyl)-3-methyl-1,5,9-triazacyclododecan-1-yl]sulfonyl}-N,N-dimethylaniline]	29.6	546	68.3	421	> 25000	1.06	0.62	2.05	0.88
C[C@H]1CN(S(=O)(=O)c2ccc(N(C)C)cc2)CCCN(CC2CCCCC2)CCCN(S(=O)(=O)N2CCN(c3ccccc3C#N)CC2)C1 [A118, 2-(4-{[(3S)-9-(cyclohexylmethyl)-5-[4-(dimethylamino)benzenesulfonyl]-3-methyl-1,5,9-triazacyclododecan-1-yl]sulfonyl}piperazin-1-yl)benzonitrile]	67.8	2090	173	5350	> 25000	14.2	22.1	18.3	14.7
Cc1cccc(C)c1N1CCN(S(=O)(=O)N2CCCN(CC3CCCCC3)CCCN(S(=O)(=O)c3ccc(N(C)C)cc3)C[C@H](C)C2)CC1 [A119, 4-{[(3S)-9-(cyclohexylmethyl)-5-{[4-(2,6-dimethylphenyl)piperazin-1-yl]sulfonyl}-3-methyl-1,5,9-triazacyclododecan-1-yl]sulfonyl}-N,N-dimethylaniline]	52.3	1080	170	7680	> 25000	71.7	50.8	66.1	53.9

Other lines, results leading:

IC50 [1] [nM]	IC50 [2] [nM]	IC50 [3] [nM]	EC50 [4] [nM]	EC50 [5] [nM]	Liver Microsome Stability-% Left after 30 min w/ NADPH (%) Human [6] [%]	Liver Microsome Stability-% Left after 30 min w/ NADPH (%) Mouse [7] [%]	Liver Microsome Stability-% Left after 30 min w/ NADPH (%) Rat [8] [%]	Liver Microsome Stability-% Left after 30 min w/ NADPH (%) Monkey [9] [%]	Compound
14	425	45.9	835	> 25000	5.02	6.13	7.41	3.47	CC(C)CCN1CCCN(S(=O)(=O)c2ccc(N(C)C)cc2)C[C@H](C)CN(S(=O)(=O)N2CCc3cc(Cl)ccc3C2)CCC1 [A123, 4-{[(3S)-5-[(6-chloro-1,2,3,4-tetrahydroisoquinolin-2-yl)sulfonyl]-3-methyl-9-(3-methylbutyl)-1,5,9-triazacyclododecan-1-yl]sulfonyl}-N,N-dimethylaniline]
829	11500	1090	> 25000	> 25000	0.2	0.14	0.37	8.67	C[C@H]1CN(S(=O)(=O)c2ccc(N(C)C)cc2)CCCN(Cc2ncco2)CCCN(S(=O)(=O)N2CCc3cc(Cl)ccc3C2)C1 [A125, 4-{[(3S)-5-[(6-chloro-1,2,3,4-tetrahydroisoquinolin-2-yl)sulfonyl]-3-methyl-9-[(1,3-oxazol-2-yl)methyl]-1,5,9-triazacyclododecan-1-yl]sulfonyl}-N,N-dimethylaniline]
145	2400	426	4740	> 25000	84.5	101	73.9	70.2	Cc1ccc(CN2CCCN(S(=O)(=O)c3ccc(N(C)C)cc3)C[C@H](C)CN(S(=O)(=O)N3CCc4cc(Cl)ccc4C3)CCC2)cc1 [A131, 4-{[(3S)-5-[(6-chloro-1,2,3,4-tetrahydroisoquinolin-2-yl)sulfonyl]-3-methyl-9-[(4-methylphenyl)methyl]-1,5,9-triazacyclododecan-1-yl]sulfonyl}-N,N-dimethylaniline]
11	309	27.3	541	> 25000	31.9	27.9	41.3	9.76	C[C@H]1CN(S(=O)(=O)c2ccc(N(C)C)cc2)CCCN(CCC2CCCCC2)CCCN(S(=O)(=O)N2CCc3cc(Cl)ccc3C2)C1 [A134, 4-{[(3S)-5-[(6-chloro-1,2,3,4-tetrahydroisoquinolin-2-yl)sulfonyl]-9-(2-cyclohexylethyl)-3-methyl-1,5,9-triazacyclododecan-1-yl]sulfonyl}-N,N-dimethylaniline]
21.6	625	48.6	1240	> 25000	9.36	26.1	56.3	39.2	C[C@H]1CN(S(=O)(=O)c2ccc(N(C)C)cc2)CCCN(CC2=CCCCC2)CCCN(S(=O)(=O)N2CCc3cc(Cl)ccc3C2)C1 [A135, 4-{[(3S)-5-[(6-chloro-1,2,3,4-tetrahydroisoquinolin-2-yl)sulfonyl]-9-[(cyclohex-1-en-1-yl)methyl]-3-methyl-1,5,9-triazacyclododecan-1-yl]sulfonyl}-N,N-dimethylaniline]
26.5	544	101	1730	> 25000	65.3	14.3	26.6	23.2	CCc1ccc2c(c1)CCN(S(=O)(=O)N1CCCN(CC3CCCCC3)CCCN(S(=O)(=O)c3ccc(N(C)C)cc3)C[C@H](C)C1)C2 [A136, 4-{[(3S)-9-(cyclohexylmethyl)-5-[(6-ethyl-1,2,3,4-tetrahydroisoquinolin-2-yl)sulfonyl]-3-methyl-1,5,9-triazacyclododecan-1-yl]sulfonyl}-N,N-dimethylaniline]
